Patent US20260007634A1, “PHARMACEUTICAL COMPOSITIONS FOR THE TREATMENT OF ALLERGIC DISEASES” (KINKI UNIVERSITY, priority 2022, published 2026)

Legend:
IgE antibody = assay: Serum IgE antibody ELISA, atopic dermatitis mice; format: in vivo, mouse; settings: day 7, topical application, control 1214, vehicle (MC903) 2588
Protocol: (§1) MC903 at 2 nM was applied to the right auricle of a 6-week-old male Balb/c (Japan SLC Inc.). Starting 8 h later, 5% norathyriol aqueous solution (1 mL of ethanol containing […] of norathyriol), betamethasone ointment, and delgocitinib ointment were applied to the auricle for 7 days. The measurement of auricular skin swelling was calculated by calipers. The day on which the first application of the compound was made was defined as day 0. Betamethasone and delgocitinib are currently in clinical use in atopic dermatitis and were used as control drugs in this example.
Serum was collected from mice on day 7 in Example 1, and IgE antibody production was measured by enzyme-linked immunosorbent assay (ELISA). This assay was performed using a mouse IgE antibody ELISA kit (R&D).

TSLP = assay: Auricular tissue TSLP ELISA, atopic dermatitis mice; format: in vivo, mouse; settings: day 7, topical application, control 317, vehicle 1533
Protocol: as §1
The mouse TSLP ELISA kit (R&D) was used for this measurement.

IL-4 = assay: Auricular tissue IL-4 ELISA, atopic dermatitis mice; format: in vivo, mouse; settings: day 7, topical application, control 56, vehicle 152
Protocol: as §1
The mouse IL-4 ELISA kit (R&D) was used for this measurement.

IL-5 = assay: Auricular tissue IL-5 ELISA, atopic dermatitis mice; format: in vivo, mouse; settings: day 7, topical application, control 15, vehicle 32
Protocol: as §1
The mouse IL-5 ELISA kit (R&D) was used for this measurement.

[1] = tested on: B cells collected from mice; assay: BAFF-induced differentiation into mature B cells (IgM/IgD flow cytometry); format: cell-based, mouse; settings: 100 ng/mL BAFF, 10 days, 100 μM mangiferin, 20 μM 1,3,5,6-tetrahydroxyxanthone, 10 μM others; for population IgM positive and IgD positive (mature B cells): control 0, BAFF only 45.6; for population IgM positive and IgD negative (immature B cells): control 0.529, BAFF only 42.3; for population IgM negative and IgD negative (pre-B cells): control 99.5, BAFF only 11.7
Protocol: B cells collected from mice were cultured in RPMI 1640 medium for 1 day. Then, 100 μM mangiferin, 10 μM mangiferin 8a, 10 μM norathyriol, 20 μM 1,3,5,6-tetrahydroxyxanthone, 10 μM xanthohydrol, 10 μM α-mangostin, 10 μM of γ-mangostin were added to B cell, and after 1 day of culture, 100 ng/mL of BAFF was added, followed by 10 days of culture. After 10 days of culture, cells were stained with anti-IgM and anti-IgD antibodies, markers of B cells, and the expression of IgM and IgD was measured using BD LSRFortessa. Note that IgM negative and IgD negative indicates pre-B cells, IgM positive and IgD negative indicates immature B cells, and IgM positive and IgD positive indicates mature B cells.

[2] = tested on: B cells collected from mice; assay: BAFF-induced differentiation into plasma cells (CD138 flow cytometry); format: cell-based, mouse; settings: 100 ng/mL BAFF, 10 days; 100 μM mangiferin, 20 μM 1,3,5,6-tetrahydroxyxanthone, 10 μM others; vs BAFF-added group
Protocol: B cells collected from mice were cultured in RPMI 1640 medium for 1 day. Then, 100 μM mangiferin, 10 μM mangiferin 8a, 10 μM norathyriol, 20 μM 1,3,5,6-tetrahydroxyxanthone, 10 μM xanthohydrol, 10 μM α-mangostin, 10 μM of γ-mangostin were added to B cell, and after 1 day of culture, 100 ng/mL of BAFF was added, followed by 10 days of culture. After 10 days of culture, cells were stained with anti-CD138 antibody, a marker of plasma cells, and CD138 expression was measured using BD LSRFortessa.
In all figures, the horizontal axis represents the expression level of CD138 and the vertical axis represents the number of cells.

NIK = biological target: T1, NIK (Mus musculus, UniProt Q9WUL6); assay: BAFF-induced NIK activation in B cells (Western blotting, phospho-NIK); format: cell-based; settings: for phospho-NIK band (immunoblotting): 100 ng/mL BAFF 1 h after 23 h compound, 100 μM mangiferin, 20 μM 1,3,5,6-tetrahydroxyxanthone, 10 μM others; for inhibition of NIK activity compared with mangiferin: general statement in the description, referring to the examples
T1 construct: Proteins were extracted with cell lysate and used as samples; endogenous in cells; host or cells: primary splenic B cells from 6-week-old male Balb/c mice
Protocol: (§2) Spleens were harvested from 6-week-old male Balb/c mice and B cells were isolated. After isolation, the cells were seeded in […] dish and cultured in RPMI 1640 medium for 1 day and used as control. In addition, B cells were seeded into 100 mm^2 dish, and after 1 day of culture, 100 ng/mL BAFF was added and cultured for 1 h. Furthermore, B cells were seeded in […] dish, and after 1 day of culture, 100 μM mangiferin, 10 μM mangiferin 8a, 10 μM norathyriol, 20 μM 1,3,5,6-tetrahydroxyxanthone, 10 μM xanthohydrol, 10 μM of α-mangostin, and 10 μM of γ-mangostin were added to B cells, and after 23 h, 100 ng/mL BAFF was added to each, and the cells were incubated for 1 h. All were incubated at 37° C. and 5% CO2.
(§3) Proteins were extracted with cell lysate and used as samples. Each sample was transferred to a PVDF membrane after SDSPAGE and assayed with anti-phospho-NIK, anti-NIK, anti-NF-κB p52, anti-NF-κB p65 and anti-Lamin antibodies.
(§4) The antibody species is indicated in the vertical direction. Specifically, in the case of anti-phospho-NIK antibody (described as “Phospho-NIK”), anti-NIK antibody (described as “NIK”), anti-NF-κB p52 antibody (described as “NF-κB p52 nuclear”), anti-NF-κB p65 antibody (described as “NF-κB p65 nuclear”) and anti-Lamin antibody (described as “Lamin”).

NF-κB p52 = assay: BAFF-stimulated B cells, nuclear NF-κB p52 (Western blotting); format: cell-based, mouse; settings: vs 100 ng/mL BAFF; 100 μM mangiferin, 20 μM 1,3,5,6-tetrahydroxyxanthone, 10 μM others
Protocol: as §2, §3, §4

T1 sequence (Q9WUL6 whole entry): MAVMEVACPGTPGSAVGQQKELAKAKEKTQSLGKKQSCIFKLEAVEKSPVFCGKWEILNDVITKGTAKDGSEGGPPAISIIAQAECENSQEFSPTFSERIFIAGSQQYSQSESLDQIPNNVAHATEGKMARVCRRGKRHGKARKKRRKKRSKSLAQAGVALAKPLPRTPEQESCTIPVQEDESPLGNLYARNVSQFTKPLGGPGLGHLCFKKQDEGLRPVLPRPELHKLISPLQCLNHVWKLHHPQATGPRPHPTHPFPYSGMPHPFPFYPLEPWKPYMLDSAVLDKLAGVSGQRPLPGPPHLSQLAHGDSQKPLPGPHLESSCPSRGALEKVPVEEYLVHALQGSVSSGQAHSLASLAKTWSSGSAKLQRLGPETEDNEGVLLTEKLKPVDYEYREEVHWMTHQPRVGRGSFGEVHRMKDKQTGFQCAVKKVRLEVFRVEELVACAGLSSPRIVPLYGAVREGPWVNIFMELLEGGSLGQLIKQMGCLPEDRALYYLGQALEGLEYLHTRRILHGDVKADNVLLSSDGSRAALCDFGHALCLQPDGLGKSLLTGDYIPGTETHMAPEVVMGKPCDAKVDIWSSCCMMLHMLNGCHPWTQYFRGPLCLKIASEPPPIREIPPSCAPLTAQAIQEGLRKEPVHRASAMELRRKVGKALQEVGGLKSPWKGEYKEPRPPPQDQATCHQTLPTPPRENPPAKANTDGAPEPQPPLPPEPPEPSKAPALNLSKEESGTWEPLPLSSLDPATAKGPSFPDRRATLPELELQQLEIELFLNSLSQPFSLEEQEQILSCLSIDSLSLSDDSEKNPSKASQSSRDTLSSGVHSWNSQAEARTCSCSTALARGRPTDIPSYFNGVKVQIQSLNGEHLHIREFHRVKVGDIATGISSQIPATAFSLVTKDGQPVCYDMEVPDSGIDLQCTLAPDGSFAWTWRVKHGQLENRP

Row | Structure (SMILES) | amount of IgE antibody (IgE antibody) | TSLP secretion (TSLP) | IL-4 secretion (IL-4) | IL-5 secretion (IL-5) | population IgM positive and IgD positive (mature B cells) [1] | population IgM positive and IgD negative (immature B cells) [1] | population IgM negative and IgD negative (pre-B cells) [1] | CD138 expression [2] | phospho-NIK band (immunoblotting) (NIK) | inhibition of NIK activity compared with mangiferin (NIK) | nuclear NF-κB p52 band (immunoblotting) (NF-κB p52)
1 | C[C@H]1CN(C(=O)CC#N)[C@]12CCN(c1ncnc3[nH]ccc13)C2 [delgocitinib] | 1812 ng/mL | 971 pg/mL | 159 pg/mL | 33 pg/mL |  |  |  |  |  |  | 
2 | O=c1c2ccc(O)c(O)c2oc2cc(O)cc(O)c12 [1,3,5,6-tetrahydroxyxanthone] |  |  |  |  | 0% | 2.92% | 96.5% | significantly decreased CD138 expression | fainter | more inhibition of NIK activity than mangiferin | fainter
3 | CC(C)=CCc1c(O)cc2oc3cc(O)c(O)c(CC=C(C)C)c3c(=O)c2c1O [γ-mangostin] |  |  |  |  | 0.561% | 19.7% | 79.7% | significantly decreased CD138 expression | fainter | more inhibition of NIK activity than mangiferin | fainter
4 | COc1c(O)cc2oc3cc(O)c(CC=C(C)C)c(O)c3c(=O)c2c1CC=C(C)C [α-mangostin] |  |  |  |  | 0.363% | 21.2% | 78.1% | significantly decreased CD138 expression | fainter | more inhibition of NIK activity than mangiferin | fainter
5 | C[C@H]1C[C@H]2[C@@H]3CCC4=CC(=O)C=C[C@]4(C)[C@@]3(F)[C@@H](O)C[C@]2(C)[C@@]1(O)C(=O)CO [betamethasone] | 1175 ng/mL | 651 pg/mL | 45 pg/mL | 8 pg/mL |  |  |  |  |  |  | 
6 | OC1c2ccccc2Oc2ccccc21 [xanthohydrol] |  |  |  |  | 0% | 3.64% | 96.3% | significantly decreased CD138 expression | fainter | more inhibition of NIK activity than mangiferin | fainter
7 | O=c1c2cc(O)c(O)cc2oc2cc(O)c([C@@H]3O[C@H](CO)[C@@H](O)[C@H](O)[C@H]3O)c(O)c12 [mangiferin] |  |  |  |  | 0% | 3.24% | 95.8% | significantly decreased CD138 expression | fainter |  | fainter
